From patent US20230372346A1, “TREATMENT REGIMENS FOR EXON-20 INSERTION MUTANT EGFR CANCERS” (CULLINAN PEARL CORP., priority 2020, published 2023)
“Also recorded” adds a separate entry of the source. Where two headings read alike, the source gives them in different places.

Experiments:
[1] = system: KRAS mutant cell lines, NCI-H23 cells, and NCI-H460 cells; conditions: EGFR-independent cell growth; cited from earlier work
[2] = Phase 1/2a study, pharmacokinetics; type: in vivo, human
Protocol: (§1) This is a Phase 1/2a, open-label, multicenter, first-in-human trial to evaluate the safety and tolerability, PK, PD, and preliminary efficacy of CLN-081 in patients with non-small cell lung cancer (NSCLC) harboring epidermal growth factor receptor (EGFR) exon 20 insertion mutations.
PK analysis has been performed with CLN-081 plasma concentrations determined at pre-dose, 0.5, 1, 2, 3, 4, 6, 8 and 24 hour % post initial dose on Cycle (C) I Day (D) I and C1D15. […] CLN-081 has typically been rapidly absorbed with tmax values ranging from 0.5 to 2 hours and a mean average terminal phase elimination half-life (t1/2) of approximately 4 hours.

[3] = system: Ba/F3 harboring wild type EGFR; conditions: cited from earlier work
[4] = system: EGFR and EGFR mutants that harbor an exon 20 insertion mutation; conditions: EGFR and exon 20 insertion mutants; cited from earlier work
[5] = system: subcutaneously-implanted tumors expressing EGFR with G719A+T790M mutations; conditions: cited from earlier work
[6] = system: mutant EGFRs that possess mutations at L792 (L792H, L792F, L792Y) in exon 20 in combination with ex19del+T790M or L858R+T790M; conditions: cited from earlier work
[7] = system: mutant EGFRs that possess mutations in exon 18 or exon 21; conditions: cited from earlier work
[8] = system: subcutaneously-implanted tumors expressing EGFR with exon 20 insertions; conditions: cited from earlier work
[9] = system: mutant EGFRs that possess L718Q mutation in exon 18 in combination with ex19del+T790M or L858R+T790M; conditions: cited from earlier work
[10] = Phase 1/2a study, safety and adverse events (CTCAE v5); type: in vivo, human
Text: as §1
DLTs will be determined based on the incidence and intensity of AEs related to CLN-081 (excluding toxicities clearly related to disease progression or other inter-current illness) as defined below. Dose escalation decisions will be determined based on DLT that occur during the 21 days after initiation of CLN-081 dosing. AEs meeting the definition of a DLT that are observed after 21 days will be made available to the SRC in case a pattern of late toxicity emerges. Toxicity will be graded by the Common Toxicity Criteria for Adverse Events (CTCAE) v5.0. Patients who experience AEs meeting the criteria for DLT should pause treatment with CLN-081 pending management and resolution of the event, and assessment of the relationship of the AE to CLN-081 administration.
Safety and tolerability will be assessed by the incidence and severity of AEs as determined by CTCAE v5.

[11] = system: Ba/F3 cell lines harboring EGFR with mutations in exon 18 or exon 21; conditions: cited from earlier work
[12] = system: mutant EGFRs that possess in-frame insertion mutations in exon 20; conditions: A763_Y764insFQEA, V769_D770insASV, D770_N771insG, D770_N771insSVD, H773_V774insNPH, H773_V774insPH; cited from earlier work
[13] = system: NSCLC cell lines harboring mutant EGFR; conditions: LXF 2478 and NCI-H1975 EGFR D770_N771insSVD cells; with inhibition of EGFR phosphorylation and induction of caspase 3/7; cited from earlier work
[14] = system: cells expressing EGFR with exon 20 insertion mutations; conditions: cells expressing EGFR with exon 20 insertion mutations compared with cells expressing WT EGFR; cited from earlier work
[15] = target: WT EGFR (Homo sapiens, UniProt P00533); conditions: cited from earlier work
[16] = unbound, 100 mg BID, patient 0102-001
[17] = unbound, 100 mg BID, patient 0104-005
[18] = unbound, 100 mg BID, patient 0701-001
[19] = baseline ex19del+T790M or L858R+T790M
[20] = G719A, G719S, G719C, E709K, E709A, L861Q
[21] = 44/45 patients, all dose levels

Chain of WT EGFR (P00533 25-1210): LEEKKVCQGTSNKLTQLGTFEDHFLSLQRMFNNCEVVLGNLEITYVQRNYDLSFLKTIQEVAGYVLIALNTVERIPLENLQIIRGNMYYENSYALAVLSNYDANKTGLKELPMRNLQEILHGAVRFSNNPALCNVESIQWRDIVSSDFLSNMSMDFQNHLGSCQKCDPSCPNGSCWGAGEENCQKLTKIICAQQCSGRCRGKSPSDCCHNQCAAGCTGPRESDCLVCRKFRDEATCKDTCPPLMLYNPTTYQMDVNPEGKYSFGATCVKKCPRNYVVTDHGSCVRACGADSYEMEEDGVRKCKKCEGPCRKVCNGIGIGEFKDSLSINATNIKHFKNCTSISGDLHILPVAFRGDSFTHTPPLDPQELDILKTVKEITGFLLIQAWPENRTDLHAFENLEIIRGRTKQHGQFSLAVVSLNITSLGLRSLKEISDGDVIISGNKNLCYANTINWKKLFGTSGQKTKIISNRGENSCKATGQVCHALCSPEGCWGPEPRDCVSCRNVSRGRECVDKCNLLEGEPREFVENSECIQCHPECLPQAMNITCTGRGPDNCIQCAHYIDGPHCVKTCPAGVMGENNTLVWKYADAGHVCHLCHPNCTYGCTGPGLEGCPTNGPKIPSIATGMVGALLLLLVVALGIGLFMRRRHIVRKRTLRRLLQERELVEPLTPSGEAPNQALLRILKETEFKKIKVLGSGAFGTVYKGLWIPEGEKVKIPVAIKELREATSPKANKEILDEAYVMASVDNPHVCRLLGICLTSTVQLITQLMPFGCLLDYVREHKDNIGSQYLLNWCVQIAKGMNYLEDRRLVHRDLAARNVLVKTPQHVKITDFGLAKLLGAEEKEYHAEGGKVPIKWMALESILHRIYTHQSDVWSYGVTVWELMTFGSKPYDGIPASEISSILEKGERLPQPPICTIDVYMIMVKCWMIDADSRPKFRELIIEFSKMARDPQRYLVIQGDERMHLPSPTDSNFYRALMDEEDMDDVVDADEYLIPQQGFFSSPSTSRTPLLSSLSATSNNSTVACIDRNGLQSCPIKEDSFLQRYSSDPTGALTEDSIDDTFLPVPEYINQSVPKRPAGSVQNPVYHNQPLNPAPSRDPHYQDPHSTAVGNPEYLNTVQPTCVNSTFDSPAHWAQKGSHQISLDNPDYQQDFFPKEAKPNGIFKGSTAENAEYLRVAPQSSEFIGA

## C=CC(=O)N[C@H]1C=C(C)c2c(-c3cnc4ccccc4c3)c3c(N)ncnc3n2C1 [Compound 1, (S)—N-(4-amino-6-methyl-5-(quinolin-3-yl)-8,9-dihydropyrimido[5,4-b]indolizin-8-yl)acrylamide]
[1]
  GI50: > 3000 nM
[2]; C1D1 to C1D15, listed as CLN-081
  change in systemic exposure levels / drug accumulation: Minimal to no increase; also recorded: no evidence of meaningful drug accumulation
[2]; across the dose range tested
  dose proportionality of Cmax and AUC: dose proportional increase
[2]; human, plasma, oral, 100 mg, 100 mg BID, patient 0102-001, read-out: T1/2 (converted)
  half-life: 3.6 h
[2]; human, plasma, oral, 100 mg, 100 mg BID, patient 0104-005, read-out: T1/2 (converted)
  half-life: 6.1 h
[2]; human, plasma, oral, 100 mg, 100 mg BID, patient 0701-001, read-out: T1/2 (converted)
  half-life: 3.6 h
[2]; human, plasma, po, oral BID, read-out: mean average terminal phase elimination half-life (t1/2) (converted)
  half-life: ~4 h
[2]; human, plasma, oral, 30-100 mg BID
  Tmax: 0.5 to 2 h
[2]; [16]
  uAUC*: 957 ng·h/mL
  uCmax: 260 ng/mL
[2]; [17]
  uAUC*: 1213 ng·h/mL
  uCmax: 274 ng/mL
[2]; [18]
  uAUC*: 1353 ng·h/mL
  uCmax: 418 ng/mL
[2]; unbound, 30 to 100 mg BID
  AUC0-8hr versus dose: generally increase with increasing dose
  Cmax versus dose: generally increase with increasing dose
[3]
  IC50: 597 nM
[4]
  inhibition of in vitro phosphorylation activity of EGFR and EGFR mutants: inhibited
[5]; dose-dependent
  tumor growth inhibition: significant tumor growth inhibition effects
[5]; mouse, in vivo
  body weight loss, fecal abnormalities, or skin abnormalities: not effected at a cost of body weight loss, fecal abnormalities, or skin abnormalities
[6]; L792H, L792F, L792Y each with ex19del+T790M or L858R+T790M
  potency in inhibiting the phosphorylation of mutant EGFRs: intensive cellular potency
[6]; [19]
  absolute activity and selectivity over baseline mutations compared with osimertinib, erlotinib and Afatinib: higher
[7]; G719A+T790M, L861Q+T790M
  inhibition against EGFRs harboring T790M and either exon 18 or exon 21 mutations: intensive inhibition
[7]; [20]
  activity compared with erlotinib and osimertinib: higher
  potency in inhibiting the phosphorylation of mutant EGFRs: intensive cellular potency
[8]; V769_D770insASV, D770_N771insSVD, H773_V774insNPH, dose-dependent
  antitumor efficacy: striking tumor growth inhibition and tumor regression effects
[8]; nude mice transplanted with NCI-H1975 EGFR D770_N771insSVD
  antitumor efficacy of twice-daily versus once-daily administration: not inferior
[9]; L718Q+ex19del+T790M or L718Q+L858R+T790M
  potency in inhibiting the phosphorylation of mutant EGFRs: intensive cellular potency
[9]; [19]
  absolute activity and selectivity over baseline mutations compared with osimertinib, erlotinib and Afatinib: higher
[10]; 4 patients
  patients with treatment-related discontinuations: 9%
[10]; 5 patients
  patients requiring dose reductions: 11%
[10]; 8/45 patients, all dose levels
  patients who experienced Gr ≥3 TRAEs: 18%
[10]; 20/45 patients, all dose levels
  patients who experienced grade ≥3 AEs: 44%
[10]; [21]
  patients who experienced a treatment related adverse event (TRAE), irrespective of grade: 98%
  patients who experienced an adverse event (AE), irrespective of grade or attribution: 98%
[10]; Gr 3 diarrhea at 150 mg BID, the highest dose cohort, listed as CLN-081
  patients with dose limiting toxicity (DLT): One and one
[10]; N = 45
  Grade ≥3 TRAEs in all patients: Anemia, %: 9%
  Grade ≥3 TRAEs in all patients: Diarrhea, %: 2%
  Grade ≥3 TRAEs in all patients: Increased ALT, %: 4%
  Grade ≥3 TRAEs in all patients: Increased AST, %: 4%
  Grade ≥3 TRAEs in all patients: Increased Amylase, %: 2%
  Grade ≥3 TRAEs in all patients: Neutropenia, %: 2%
  Grade ≥3 TRAEs in all patients: Stomatitis, %: 2%
[10]; all dose levels
  patients with Gr ≥3 treatment-related rash: no patients
  patients with treatment-related Gr 3 diarrhea: one
[10]; any grade, N = 45
  TRAEs in ≥15% of patients: Anemia, %: (18) %
  TRAEs in ≥15% of patients: Diarrhea, %: (22) %
  TRAEs in ≥15% of patients: Dry Skin, %: (16) %
  TRAEs in ≥15% of patients: Increased AST, %: (16) %
  TRAEs in ≥15% of patients: Nausea, %: (18) %
  TRAEs in ≥15% of patients: Paronychia, %: (22) %
  TRAEs in ≥15% of patients: Rash, %: (76) %
  TRAEs in ≥15% of patients: Stomatitis, %: (18) %
[10]; in vivo
  diarrhea compared to historical experience with other EGFR inhibitors: reduced frequency and severity of diarrhea
  most common AEs, regardless of attribution or grade: rash, anemia and diarrhea
  safety profile: acceptable safety profile
  safety profile at efficacious dose levels compared to other TKIs targeting EGFR exon 20 insertion mutations: superior safety profile
[10]; patient had also experienced pneumonitis on osimertinib
  patients who discontinued due to treatment-related Gr 2 pneumonitis: one
[11]; T790M in addition to either G719A or L861Q
  selectivity index compared to osimertinib: higher
[11]
  selectivity index (ratio between IC50 for WT EGFR and mutant EGFR cell lines) compared to erlotinib and afatinib: much higher
[12]
  potency in inhibiting the phosphorylation of mutant EGFRs: intensive cellular potency
[13]
  growth of NSCLC cells with EGFR exon 20 insertions: suppressed the growth
[14]
  inhibitory effect on proliferation: more potent and selective inhibitory effect
[15]
  inhibition against WT EGFR: moderate inhibition
